Earlier results, collected in patent publication EP0620000A2, “Cosmetic or pharmaceutical use of N-acylalcanolamines” (RHONE-POULENC RORER GMBH, priority 1992, dated 1994).

Settings: orale Anwendung; tierexperimentelle Prüfungen; DE 27 56 866 A1

In the case of N-Oleyl-Phosphatidylethanolaminen, the “antiarteriosklerotische bzw. antilipämische Wirkung” value is given as “deutlich antiarteriosklerotische bzw. antilipämische Wirkung”.
